Measured values published in paper PMC9492542, “Brain-restricted mTOR inhibition with binary pharmacology” (Nature, 2022).
Where “and” joins values, the source holds several entries; their conditions need not be identical. Identical values can stand only once.

Columns and labels:
[1] = system: K562 CRISPRi cells; test: Cellular dye (TAMRA) retention assay by flow cytometry; format: cell-based; details: after extensive washout
Experimental: Untransduced (no virus or sgRNA^–) and sgRNA expression vector-transduced (sgRNA^+) K562 CRISPRi cells were mixed in a 1:1 ratio, plated in 48-well plates and incubated overnight. Cell mixtures were treated with the indicated TAMRA-linked compounds (300 μl final volume) and incubated for 24 h. Plates were placed over ice and 200 μl of each compound–cell mixture was transferred to a 96-well U-bottom plate. Cells were pelleted at 500g for 5 min and subsequently washed 2× with ice-cold FACS buffer (PBS + 1% BSA + 0.1% NaN3). Cells were resuspended in 200 μl of ice-cold FACS buffer and assessed using an Attune NxT (Thermo Fisher Scientific). Relative uptake of TAMRA-linked compounds was determined by comparing TAMRA fluorescence (561-nm excitation laser and 585/16-nm emission filter) between sgRNA^– and sgRNA^+ cells within each well.

[2] = target: T1, FKBP12 (Homo sapiens, UniProt P62942); test: Competition fluorescence polarization assay with FITC-rapamycin tracer; format: binding
T1 construct: His-tag (HRV 3C cleavable) (cleaved yes); made in house; host or cells: Escherichia coli BL21(DE3)
T1 sequence (P62942 whole entry): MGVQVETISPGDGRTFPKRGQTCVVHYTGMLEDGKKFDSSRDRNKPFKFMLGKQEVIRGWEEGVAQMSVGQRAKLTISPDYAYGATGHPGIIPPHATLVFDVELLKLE
Experimental: Compound binding affinity was determined using a competition fluorescence polarization assay. […] The assay buffer was 20 mM HEPES pH 7.5 and 0.01% Triton X-100. […] Data were fitted to a three-parameter sigmoidal curve to derive IC50 values. Ki of the compounds were calculated using a tool provided by S. Wang’s laboratory (http://www.umich.edu/~shaomengwanglab/software/calc_ki/index.html). Data were plotted in GraphPad Prism 9.0.

[3] = system: NFAT; test: NFAT activation assay (Jurkat-Lucia NFAT luciferase reporter, PMA/ionomycin); format: cell-based
Experimental: Jurkat-Lucia NFAT cells were resuspended to 2 × 10^6 cells per ml in fresh growth medium and dispensed in 96-well tissue culture plates (Corning 3904; 180 µl per well). DMSO solutions of test compounds at 100× the test concentrations were added and the cells were incubated for 4 h at 37 °C. A 10× stimulation solution containing phorbol myristate acetate (100 ng ml^–1) and ionomycin (10 µg ml^–1) were added to each well (20 µl per well) except for the negative control wells, which were supplemented with 20 µl medium. Cells were incubated at 37 °C for 12 h. Cells (20 µl per well) were transferred into a white opaque 96-well plate (Corning 3912). TECAN Spark 20M plate reader equipped with an auto-injection system was primed with Lucia luciferase substrate solution and set with the following parameters: 50 µl of injection volume, end-point measurement with a 4-s delay time and 0.1-s integration time. Luciferase activity was measured with the settings above and normalized to DMSO-treated, stimulated cells. Data were plotted in GraphPad Prism 9.0.

CO[C@H]1C[C@@H]2CC[C@@H](C)[C@@](O)(O2)C(=O)C(=O)N2CCCC[C@H]2C(=O)O[C@H]([C@H](C)C[C@@H]2CC[C@@H](OCCOCc3cn(CCOCCOCCOCCOCCOCCOCCOCCOCCNC(=O)c4ccc(C(=O)[O-])c(-c5c6ccc(=[N+](C)C)cc-6oc6cc(N(C)C)ccc56)c4)nn3)[C@H](OC)C2)CC(=O)[C@H](C)/C=C(\C)[C@@H](O)[C@@H](OC)C(=O)[C@H](C)C[C@H](C)/C=C/C=C/C=C/1C [RapaTAMRA]
cellular retention (median fluorescence intensity) [1]: tenfold increase in median fluorescence intensity

C=CC[C@@H]1/C=C(\C)C[C@H](C)C[C@H](OC)[C@H]2O[C@@](O)(C(=O)C(=O)N3CCCC[C@H]3C(=O)O[C@H](/C(C)=C/[C@@H]3CC[C@@H](O)[C@H](OC)C3)[C@H](C)[C@@H](O)CC1=O)[C@H](C)C[C@@H]2OC [FK506]
fluorescence polarization (competition, raw) ([2]; 0.0976562 nM compound): 108 | fluorescence polarization (competition, raw) ([2]; 0.195312 nM compound): 110 and 109 | fluorescence polarization (competition, raw) ([2]; 0.390625 nM compound): 108 | fluorescence polarization (competition, raw) ([2]; 0.78125 nM compound): 107 and 103 | fluorescence polarization (competition, raw) ([2]; 1.5625 nM compound): 104 and 103 | fluorescence polarization (competition, raw) ([2]; 3.125 nM compound): 92 and 96 | fluorescence polarization (competition, raw) ([2]; 6.25 nM compound): 75 and 72 | fluorescence polarization (competition, raw) ([2]; 12.5 nM compound): 66 and 60 | fluorescence polarization (competition, raw) ([2]; 25 nM compound): 57 and 55 | fluorescence polarization (competition, raw) ([2]; 50 nM compound): 53 and 55 | fluorescence polarization (competition, raw) ([2]; 100 nM compound): 46 and 51 | NFAT luciferase activity, normalized to DMSO-treated stimulated cells ([3]; 0.00512 nM): 103.4 and 90.3 and 99.2 | NFAT luciferase activity, normalized to DMSO-treated stimulated cells ([3]; 0.0256 nM): 93.6 and 87.2 and 91.4 | NFAT luciferase activity, normalized to DMSO-treated stimulated cells ([3]; 0.128 nM): 35.5 and 35.2 and 38.5 | NFAT luciferase activity, normalized to DMSO-treated stimulated cells ([3]; 0.64 nM): 0.2 | NFAT luciferase activity, normalized to DMSO-treated stimulated cells ([3]; 16 nM): 0.1 | NFAT luciferase activity, normalized to DMSO-treated stimulated cells ([3]; 80 nM): 0.1 and 0.2 | NFAT luciferase activity, normalized to DMSO-treated stimulated cells ([3]; 400 nM): 0.1 and 0.2 | NFAT luciferase activity, normalized to DMSO-treated stimulated cells ([3]; 2000 nM): 0.2 | NFAT luciferase activity, normalized to DMSO-treated stimulated cells ([3]; 10000 nM): 0.2 | IC50 ([3]; Homo sapiens, Jurkat NFAT luciferase, PMA + ionomycin): 0.094 ± 0.008 nM
